Measured values taken from ChEMBL document CHEMBL4402510, “Caprazamycins: Promising lead structures acting on a novel antibacterial target MraY” (Eur J Med Chem, 2019).
In brackets after ≈: the same amount, converted by molar mass.

Columns and labels:
[1] = system: Staphylococcus aureus; assay: Antibacterial activity against methicillin resistant Staphylococcus aureus No. 5; format: functional
[2] = system: Staphylococcus aureus; assay: Antibacterial activity against methicillin resistant Staphylococcus aureus MS16526; format: functional
[3] = system: Mycolicibacterium phlei; assay: Antibacterial activity against Mycobacterium phlei; format: functional
[4] = system: Staphylococcus aureus; assay: Antibacterial activity against Staphylococcus aureus FDA 209P; format: functional
[5] = system: Mycobacterium tuberculosis; assay: Antibacterial activity against Mycobacterium tuberculosis JCM 6384; format: functional
[6] = system: Mycobacterium tuberculosis; assay: Antibacterial activity against Mycobacterium tuberculosis Kurono; format: functional
[7] = system: Mycolicibacterium smegmatis; assay: Antibacterial activity against Mycobacterium smegmatis ATCC 607; format: functional
[8] = system: Mycolicibacterium vaccae; assay: Antibacterial activity against Mycobacterium vaccae ATCC 15483; format: functional
[9] = Antibacterial activity against Mycobacterium avium subsp. avium ATCC 25291; format: functional
[10] = system: Mycobacterium tuberculosis; assay: Antibacterial activity against Mycobacterium tuberculosis H37Rv; format: functional
[11] = system: Mycobacterium avium subsp. paratuberculosis; assay: Antibacterial activity against Mycobacterium avium subsp. paratuberculosis ATCC 43015; format: functional
[12] = system: Escherichia coli; assay: Antibacterial activity against Escherichia coli expressing MraY; format: functional, organism-based
[13] = system: Escherichia coli; assay: Antibacterial activity against Escherichia coli K-12; format: functional
[14] = system: Bacillus subtilis; assay: Antibacterial activity against Bacillus subtilis PCI 219; format: functional

Row | SMILES | MIC [1] [µg/mL] | MIC [2] [µg/mL] | MIC [3] [µg/mL] | MIC [4] [µg/mL] | MIC [5] [µg/mL] | MIC [6] [µg/mL] | MIC [7] [µg/mL] | MIC [8] [µg/mL] | MIC [9] [µg/mL] | MIC [10] [µg/mL] | MIC [11] [µg/mL] | IC50 [12] [µM] | MIC [13] [µg/mL] | MIC [14] [µg/mL] | MIC50 [12] [µg/mL]
1 | CCCCCCCCCCCCCCCCCCCCCNC(=O)C1=CCN(C)[C@@H]([C@H](O[C@@H]2O[C@H](CN)[C@@H](O)[C@H]2O)[C@H]2O[C@@H](n3ccc(=O)[nH]c3=O)[C@H](O)[C@@H]2O)C(=O)N1C | > 100 | > 100 | 12.5 (≈ 14.7 µM) | 1.56 (≈ 1.83 µM) | > 100 | 0.78 (≈ 0.916 µM) | 6.25 (≈ 7.34 µM) | 12.5 (≈ 14.7 µM) | 50 (≈ 58.7 µM) | 1.56 (≈ 1.83 µM) | > 100 | – | – | – | –
2 | CCCCCCCCCCOC(=O)C1=CCN(C)[C@@H]([C@H](O[C@@H]2O[C@H](CN)[C@@H](O)[C@H]2O)[C@H]2O[C@@H](n3ccc(=O)[nH]c3=O)[C@H](O)[C@@H]2O)C(=O)N1C | – | – | > 100 | > 100 | 50 (≈ 71.7 µM) | 12.5 (≈ 17.9 µM) | 50 (≈ 71.7 µM) | 0.78 (≈ 1.12 µM) | 12.5 (≈ 17.9 µM) | 12.5 (≈ 17.9 µM) | 12.5 (≈ 17.9 µM) | – | – | – | –
3 | O=c1ccn([C@@H]2O[C@H](CO[C@@H]3O[C@H](CO)[C@@H](O)[C@H]3O)[C@@H](O)[C@H]2O)c(=O)[nH]1 | – | – | – | – | – | – | – | – | – | – | – | > 1000 | – | – | –
4 | NC[C@@H]1C[C@@H](O)[C@H](OC[C@H]2O[C@@H](n3ccc(=O)[nH]c3=O)[C@H](O)[C@@H]2O)O1 | – | – | – | – | – | – | – | – | – | – | – | > 1000 | – | – | –
5 | C=CCCCCCCCCCOC(=O)C1=CCN(C)[C@@H]([C@H](O[C@@H]2O[C@H](CN)[C@@H](O)[C@H]2O)[C@H]2O[C@@H](n3ccc(=O)[nH]c3=O)[C@H](O)[C@@H]2O)C(=O)N1C | > 100 | > 100 | 50 (≈ 70.4 µM) | 1.56 (≈ 2.2 µM) | 12.5 (≈ 17.6 µM) | 12.5 (≈ 17.6 µM) | 25 (≈ 35.2 µM) | 50 (≈ 70.4 µM) | 12.5 (≈ 17.6 µM) | 12.5 (≈ 17.6 µM) | 6.25 (≈ 8.81 µM) | – | – | – | –
6 | CC(C)NC[C@H]1O[C@@H](OC[C@H]2O[C@@H](n3ccc(=O)[nH]c3=O)[C@H](O)[C@@H]2O)[C@H](O)[C@@H]1O | – | – | – | – | – | – | – | – | – | – | – | 180 | – | – | –
7 | N/C=N/C[C@H]1O[C@@H](OC[C@H]2O[C@@H](n3ccc(=O)[nH]c3=O)[C@H](O)[C@@H]2O)[C@H](O)[C@@H]1O | – | – | – | – | – | – | – | – | – | – | – | 30 | – | – | –
8 | CCCCCCCOc1ccc(NC(=O)C2=CCN(C)[C@@H]([C@H](O[C@@H]3O[C@H](CN)[C@@H](O)[C@H]3O)[C@H]3O[C@@H](n4ccc(=O)[nH]c4=O)[C@H](O)[C@@H]3O)C(=O)N2C)cc1 | 25 (≈ 33.5 µM) | < 0.2 | 3.13 (≈ 4.19 µM) | 25 (≈ 33.5 µM) | 0.1 (≈ 0.134 µM) | 0.78 (≈ 1.04 µM) | 0.78 (≈ 1.04 µM) | 6.25 (≈ 8.37 µM) | 0.78 (≈ 1.04 µM) | 0.78 (≈ 1.04 µM) | 0.2 (≈ 0.268 µM) | – | 3.13 (≈ 4.19 µM) | 50 (≈ 67 µM) | –
9 | O=CNC[C@H]1O[C@@H](OC[C@H]2O[C@@H](n3ccc(=O)[nH]c3=O)[C@H](O)[C@@H]2O)[C@H](O)[C@@H]1O | – | – | – | – | – | – | – | – | – | – | – | > 1000 | – | – | –
10 | CCCCCCCCCCCCCCCC(=O)O[C@H]1CN(C)[C@@H]([C@@H](C)O[C@@H]2O[C@H](CN)[C@@H](O)[C@H]2O)C(=O)N(C)[C@@H]1C(=O)O | – | – | – | – | – | – | – | – | – | – | – | – | – | – | > 100
11 | CCCCCCCCCCCCCOC(=O)C1=CCN(C)[C@@H]([C@H](O[C@@H]2O[C@H](CN)[C@@H](O)[C@H]2O)[C@H]2O[C@@H](n3ccc(=O)[nH]c3=O)[C@H](O)[C@@H]2O)C(=O)N1C | 0.78 (≈ 1.05 µM) | > 100 | 25 (≈ 33.8 µM) | 12.5 (≈ 16.9 µM) | 12.5 (≈ 16.9 µM) | 50 (≈ 67.6 µM) | 6.25 (≈ 8.45 µM) | 3.13 (≈ 4.23 µM) | 3.13 (≈ 4.23 µM) | 6.25 (≈ 8.45 µM) | 12.5 (≈ 16.9 µM) | – | – | 25 (≈ 33.8 µM) | –
12 | CC/C=C/CCCCCCCCCCOC(=O)C1=CCN(C)[C@@H]([C@H](O[C@@H]2O[C@H](CN)[C@@H](O)[C@H]2O)[C@H]2O[C@@H](n3ccc(=O)[nH]c3=O)[C@H](O)[C@@H]2O)C(=O)N1C | > 100 | 25 (≈ 33.3 µM) | 12.5 (≈ 16.6 µM) | 0.78 (≈ 1.04 µM) | 12.5 (≈ 16.6 µM) | 6.25 (≈ 8.31 µM) | 6.25 (≈ 8.31 µM) | 25 (≈ 33.3 µM) | 25 (≈ 33.3 µM) | 12.5 (≈ 16.6 µM) | 6.25 (≈ 8.31 µM) | – | – | – | –
13 | CCCCCCCCCCCCCCc1ccc(NC(=O)C2=CCN(C)[C@@H]([C@H](O[C@@H]3O[C@H](CN)[C@@H](O)[C@H]3O)[C@H]3O[C@@H](n4ccc(=O)[nH]c4=O)[C@H](O)[C@@H]3O)C(=O)N2C)cc1 | 12.5 (≈ 15.1 µM) | 0.39 (≈ 0.47 µM) | 3.13 (≈ 3.78 µM) | 12.5 (≈ 15.1 µM) | 0.78 (≈ 0.941 µM) | 3.13 (≈ 3.78 µM) | 6.25 (≈ 7.54 µM) | 6.25 (≈ 7.54 µM) | 6.25 (≈ 7.54 µM) | 3.13 (≈ 3.78 µM) | 0.39 (≈ 0.47 µM) | – | > 100 | > 100 | –
14 | CCCCCCNC[C@H]1O[C@@H](OC[C@H]2O[C@@H](n3ccc(=O)[nH]c3=O)[C@H](O)[C@@H]2O)[C@H](O)[C@@H]1O | – | – | – | – | – | – | – | – | – | – | – | 130 | – | – | –
15 | NC[C@H]1O[C@@H](OC[C@@H]2C[C@@H](O)[C@H](n3ccc(=O)[nH]c3=O)O2)[C@H](O)[C@@H]1O | – | – | – | – | – | – | – | – | – | – | – | 10 | – | – | –
16 | CCCCCCc1ccc(NC(=O)C2=CCN(C)[C@@H]([C@H](O[C@@H]3O[C@H](CN)[C@@H](O)[C@H]3O)[C@H]3O[C@@H](n4ccc(=O)[nH]c4=O)[C@H](O)[C@@H]3O)C(=O)N2C)cc1 | 12.5 (≈ 17.4 µM) | – | 0.39 (≈ 0.544 µM) | > 100 | 6.25 (≈ 8.72 µM) | 0.78 (≈ 1.09 µM) | 1.56 (≈ 2.18 µM) | 12.5 (≈ 17.4 µM) | 0.2 (≈ 0.279 µM) | 0.78 (≈ 1.09 µM) | 0.78 (≈ 1.09 µM) | – | – | – | –
